Assay results reported in paper PMC9184620, “TAS1553, a small molecule subunit interaction inhibitor of ribonucleotide reductase, exhibits antitumor activity by causing DNA replication stress” (Communications Biology, 2022).
Ends that are not written are not given here.

Columns and labels:
[1] = molecular target: T1, RNR (R1 and R2 recombinant proteins) (Homo sapiens, UniProt P23921); test: RNR assay (formation of dCDP from CDP); format: biochemical; settings: CDP to dCDP; mean ± SD; read-out: Enzyme IC50
T1 construct: made in house; host or cells: Escherichia coli
T1 sequence (P23921 1-792): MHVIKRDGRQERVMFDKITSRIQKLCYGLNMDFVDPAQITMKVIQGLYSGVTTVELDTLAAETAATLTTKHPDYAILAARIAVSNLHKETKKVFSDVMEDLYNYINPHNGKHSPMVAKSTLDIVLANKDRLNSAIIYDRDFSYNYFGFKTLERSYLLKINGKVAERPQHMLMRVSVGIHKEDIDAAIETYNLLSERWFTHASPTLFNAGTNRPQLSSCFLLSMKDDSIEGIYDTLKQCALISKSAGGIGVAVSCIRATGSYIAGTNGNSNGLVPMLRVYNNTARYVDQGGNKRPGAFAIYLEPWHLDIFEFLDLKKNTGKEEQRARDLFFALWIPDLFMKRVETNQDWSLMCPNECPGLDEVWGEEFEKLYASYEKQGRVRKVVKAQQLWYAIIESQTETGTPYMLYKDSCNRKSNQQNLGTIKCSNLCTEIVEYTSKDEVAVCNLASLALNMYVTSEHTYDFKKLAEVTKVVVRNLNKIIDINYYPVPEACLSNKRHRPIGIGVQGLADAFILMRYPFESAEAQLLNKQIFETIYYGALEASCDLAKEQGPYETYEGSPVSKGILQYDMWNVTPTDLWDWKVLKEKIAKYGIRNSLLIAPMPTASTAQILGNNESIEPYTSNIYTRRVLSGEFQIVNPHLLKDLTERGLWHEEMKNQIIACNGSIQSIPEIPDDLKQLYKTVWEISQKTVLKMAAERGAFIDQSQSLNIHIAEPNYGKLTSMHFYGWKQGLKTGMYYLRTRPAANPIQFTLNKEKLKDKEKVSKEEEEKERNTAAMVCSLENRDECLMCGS
Method: The binding affinity of TAS1553 to the R1 subunit was investigated using surface plasmon resonance (SPR) binding analysis. […] Next, we evaluated the inhibitory effect of TAS1553 against the enzymatic activity of RNR, consisting of R1 and R2 recombinant proteins. RNR activity was determined by its ability to reduce cytidine diphosphate (CDP) to deoxycytidine diphosphate (dCDP), based on a previous report. […] In addition to the inhibitory effect on RNR, TAS1553 was evaluated in a Eurofins LeadProfilingScreen panel assay including 68 proteins, such as ion channels, transporters, nuclear receptors, and G protein-coupled receptors, to examine its potential adverse activity.
The inhibition of RNR activity by the test compound was evaluated by measuring the formation of dCDP from CDP, as reported previously. The assay was performed for 30 min at 37 °C in a reaction mixture composed of 50 mmol/L HEPES, 4 mmol/L magnesium acetate, 100 mmol/L KCl, 6 mmol/L DTT, 2 mmol/L ATP, 0.24 mmol/L NADPH, 10.0 µmol/L CDP, 0.1 mg/mL BSA, 8.0 µg/mL His-R1, 2.4 µg/mL His-R2, and 1% DMSO with or without test compound. The reaction was discontinued by heat treatment at 95 °C for 5 min. The amount of dCDP after the reaction was quantified by a prominence HPLC system and LabSolutions software (SHIMADZU CORPORATION). Separations were performed at 265 nm in a Shim-pack XR-ODS column of particle size 2.2 μm (100 × 3.0 mm, SHIMADZU GLC Ltd.). Overall, 5 µL of each sample was injected, and chromatography was performed at 40 °C. Mobile A was composed of 10 mmol/L potassium dihydrogenphosphate, 10 mmol/L tetrabutylammonium hydroxide, 0.25% methanol and 8 mmol/L HCl. Mobile B was composed of 50 mmol/L potassium dihydrogenphosphate, 5.6 mmol/L tetrabutylammonium hydroxide, and 30% methanol. The gradient was as follows: 52–60% B for 9 min, 60–99% B for 1 min, 99% B for 5 min, 99–52% B for 1 min, and 52% B for 5 min. The flow rate was 0.5 mL/min. The experiment was performed in triplicates. IC50 values were calculated using the SAS software package.

[2] = system: HCC38 xenograft; test: Antitumor activity in mice bearing HCC38 xenografts; format: in vivo, mouse; settings: 539 mg/kg oral once daily for 14 days (maximum tolerated dose)
Method: Next, we evaluated the antitumor activity of a high-dose administration of TAS1553 and cytarabine in rats bearing MV-4-11 xenografts. […] The rats were treated with cytarabine for 5 days at 16 and 32 mg/kg. […] In addition to the hematologic tumor, we evaluated the antitumor activity of TAS1553 in mice implanted with HCC38 cell line as a solid tumor model. […] Finally, TAS1553 was evaluated for its survival benefit in a mouse model. To achieve this, we established mice bone marrow cells harboring the human MLL-AF9 fusion gene, which is known as a driver gene for AML in humans as well as mice[48]. Mice were transplanted with the cells through the tail vein and the treatment with TAS1553 was started 11 days post-implantation.
For the subcutaneous implantation model of MV-4-11, F344/NJcl-rnu/rnu rats were irradiated with X-ray (4 Gy) to improve the efficiency of xenograft implantation. Two days after X-ray irradiation, MV-4-11 cells suspended in PBS with 50 vol% Matrigel were inoculated into the rats (2 × 10^7 cells/animal). In the mice subcutaneous implantation model, HCC38 cells suspended same as above were inoculated into male BALB/cAJcl-nu/nu mice (1 × 10^7 cells /body). The animals were randomized and administered with the compound for 14 days. Antitumor activity and body weight change were evaluated as previously reported. Dunnett test using the SAS software package in EXSUS (CAC Croit) was used to compare the tumor volume (P < 0.05).

[3] = molecular target: T2, human R1 (Homo sapiens, UniProt P23921); test: Fluorescence polarization binding assay (displacement of TAMRA-labeled P7 from R1); settings: R1 and TAMRA-labeled P7; mean ± SD, three independent experiments; read-out: IC50, fluorescent polarization binding assay
T2 construct: made in house; host or cells: Escherichia coli
T2 sequence (P23921 1-792): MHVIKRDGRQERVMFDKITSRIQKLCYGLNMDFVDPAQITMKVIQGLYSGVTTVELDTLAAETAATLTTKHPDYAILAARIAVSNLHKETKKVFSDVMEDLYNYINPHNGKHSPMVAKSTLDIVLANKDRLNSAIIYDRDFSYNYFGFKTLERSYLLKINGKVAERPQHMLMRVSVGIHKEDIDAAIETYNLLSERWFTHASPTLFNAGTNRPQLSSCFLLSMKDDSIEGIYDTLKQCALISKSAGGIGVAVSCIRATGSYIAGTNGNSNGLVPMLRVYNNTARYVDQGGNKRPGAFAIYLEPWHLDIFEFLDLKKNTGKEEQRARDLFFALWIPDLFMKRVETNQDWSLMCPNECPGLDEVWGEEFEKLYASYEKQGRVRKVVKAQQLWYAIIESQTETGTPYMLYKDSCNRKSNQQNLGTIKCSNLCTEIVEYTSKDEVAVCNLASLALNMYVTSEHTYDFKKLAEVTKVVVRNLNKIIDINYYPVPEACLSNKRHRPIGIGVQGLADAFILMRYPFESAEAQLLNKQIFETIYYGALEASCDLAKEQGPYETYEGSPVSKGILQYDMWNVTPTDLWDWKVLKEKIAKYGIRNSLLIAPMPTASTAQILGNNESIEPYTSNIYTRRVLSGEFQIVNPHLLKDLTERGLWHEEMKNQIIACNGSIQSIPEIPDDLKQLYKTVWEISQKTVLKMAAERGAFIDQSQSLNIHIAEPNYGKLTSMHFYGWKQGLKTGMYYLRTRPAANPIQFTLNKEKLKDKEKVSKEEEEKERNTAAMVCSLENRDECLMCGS
Description: Fig. 1 Design and identification of the small molecule compound TAS1553 blocking the interaction between RNR subunits. a A schematic representation of the fluorescent polarization binding assay. TAMRA-labeled P7 heptapeptide was used as a probe. […] Data are presented as mean ± SD obtained from three independent experiments. c Chemical structures of compound 1 and TAS1553. d Superposition of the X-ray co-crystal structure of human RRM1 (green) with compound 1 (magenta) (PDB ID: 6L3R) to the previously determined X-ray co-crystal structure of Saccharomyces cerevisiae RNR1 (cyan) with P7 peptide (yellow) (PDB ID: 2ZLF). The residue numbers and protein surface shown here are those of hRRM1. e SPR analysis for the binding of TAS1553 to human R1 captured onto Series S Sensor Chip NTA. […] IC50 (mean ± SD) is determined from three independent experiments performed in triplicate.
TAMRA-labeled P7 peptide was obtained from Peptide Institute, Inc. to be used as a fluorescent probe in the FP binding assay. The final reaction mixture was composed of 50 mmol/L Tris-Cl (pH 8.0), 10 mmol/L DTT, 10 nmol/L TAMRA-P7, 32 ng/mL His-R1, and 1% DMSO with or without test compound. The assay was performed for 120 min at room temperature with protection from light, after which FP of each sample was measured with a PHERAstarFS. IC50 values were calculated using the SAS software package in EXSUS (CAC Croit).

[4] = molecular target: T3, 6x His-tagged recombinant human R1 (RRM1) (human, UniProt P23921 1-792); test: fluorescence polarisation; competition: 10 nmol/L TAMRA-P7 probe, 32 ng/mL His-R1, with or without test compound; 50 mmol/L Tris-Cl pH 8.0, 10 mmol/L DTT, 1% DMSO; 120 min, room temperature; settings: both partners purified
T3 construct: also called His-R1; hRRM1
T3 sequence (looked up): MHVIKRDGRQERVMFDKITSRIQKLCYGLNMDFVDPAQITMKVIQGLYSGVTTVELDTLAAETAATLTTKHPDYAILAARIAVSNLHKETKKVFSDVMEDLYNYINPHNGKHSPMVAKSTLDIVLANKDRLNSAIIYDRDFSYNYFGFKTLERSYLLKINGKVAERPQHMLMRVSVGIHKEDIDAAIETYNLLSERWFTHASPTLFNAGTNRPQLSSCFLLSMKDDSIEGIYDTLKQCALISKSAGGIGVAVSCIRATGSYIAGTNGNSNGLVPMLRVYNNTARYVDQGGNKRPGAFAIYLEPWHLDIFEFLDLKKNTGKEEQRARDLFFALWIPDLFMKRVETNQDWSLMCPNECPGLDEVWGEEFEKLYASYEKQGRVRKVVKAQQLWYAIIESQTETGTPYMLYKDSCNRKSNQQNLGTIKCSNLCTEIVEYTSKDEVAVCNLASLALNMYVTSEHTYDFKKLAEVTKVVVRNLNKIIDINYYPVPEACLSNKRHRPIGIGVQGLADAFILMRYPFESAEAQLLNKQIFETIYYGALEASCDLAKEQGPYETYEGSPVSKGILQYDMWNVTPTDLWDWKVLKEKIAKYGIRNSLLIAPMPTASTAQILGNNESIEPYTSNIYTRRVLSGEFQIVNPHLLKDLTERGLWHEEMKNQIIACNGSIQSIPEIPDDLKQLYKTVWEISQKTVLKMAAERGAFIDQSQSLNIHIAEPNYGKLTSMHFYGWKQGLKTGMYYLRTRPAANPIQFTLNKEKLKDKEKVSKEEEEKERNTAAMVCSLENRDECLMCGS

[5] = molecular target: T3, 6x His-tagged recombinant human R1 …; test: AlphaScreen or HTRF; AlphaLISA: 4.3 ug/mL His-R1 (Nickel Chelate Acceptor beads), 3.3 ug/mL GST-R2 (Glutathione Donor beads), with or without test compound; 50 mmol/L HEPES, 4 mmol/L magnesium acetate, 100 mmol/L KCl, 6 mmol/L DTT, 2 mmol/L ATP, 0.24 mmol/L NADPH, 0.010 mmol/L CDP, 0.1 vol% polysorbate 20, 1 vol% DMSO; 60 min, room temperature; settings: both partners purified

Molecule: O=C(Nc1nc(-c2ccc(O)c(O)c2)c(-c2ccccc2)s1)c1ccc(O)c(O)c1 [COH29]
- IC50 [1]: 6.76 ± 0.71 µM

Molecule: CCCCCOC(=O)Nc1nc(=O)n([C@@H]2O[C@H](C)[C@@H](O)[C@H]2O)cc1F [capecitabine]
- T/C ratio [2]: 67.9%

Molecule: NC(=S)N/N=C/c1ncccc1N [3-AP, Triapine]
- IC50 [1]: 0.364 ± 0.106 µM

Molecule: CN(C)c1cccc2c(S(=O)(=O)N[C@@H](Cc3ccccc3)C(=O)O)cccc12 [Dansyl-L-phenyl alanine, reference compound]
- IC50 [3]: 3340 ± 540 µM

B1: TAMRA-labeled P7 peptide (peptide)
peptide: FTLDADF
modifications: also: TAMRA label, site not given here
notes: also called TAMRA-P7; fluorescence tagged P7; source: synthetic peptide; bought: Peptide Institute, Inc
- binding result [4]: binds

B2: P7 heptapeptide (N-AcFTLDADF) (peptide)
peptide: Ac-FTLDADF
notes: also called unlabeled P7; P7 peptide; source: synthetic peptide; bought: Peptide Institute, Inc
- IC50 [4]: 2.49 µM
- IC50 [5]: 9.22 µM
